In ChEMBL document CHEMBL5576083, “Structure-Based Design and Synthesis of Covalent Inhibitors for Deubiquitinase and Acetyltransferase ChlaDUB1 of Chlamydia trachomatis” (J Med Chem, 2024):
Converted amounts (≈) assume the structure as drawn. The source made the active and inactive calls. The calls are words filed in the database; no cut-off is given here.

Columns and labels:
[1] = test system: Chlamydia trachomatis; assay: Binding affinity to C-terminal 6His-tagged Chlamydia trachomatis DUB1 (130 to 401 residues) expressed in Escherichia coli Rosetta 2 (DE3) cells using Ub-Rh110Gly as fluorogenic substrate assessed as Kinact preincubated for 60 mins followed by substrate addition measured after 360 mins by plate reader analysis; details: time 420.0 min
[2] = Binding affinity to C-terminal 6His-tagged Chlamydia trachomatis DUB1 (130 to 401 residues) expressed in Escherichia coli Rosetta 2 (DE3) cells using Ub-Rh110Gly as fluorogenic substrate assessed as inhibition constant preincubated for 60 mins followed by substrate addition measured after 360 mins by plate reader analysis
[3] = test system: Chlamydia trachomatis; assay: Binding affinity to C-terminal 6His-tagged Chlamydia trachomatis DUB1 (130 to 401 residues) expressed in Escherichia coli Rosetta 2 (DE3) cells using Ub-Rh110Gly as fluorogenic substrate assessed as ratio of Kinact/Ki preincubated for 60 mins followed by substrate addition measured after 360 mins by plate reader analysis; details: time 420.0 min
[4] = Covalent inhibition of C-terminal 6His-tagged Chlamydia trachomatis DUB1 (130 to 401 residues) expressed in Escherichia coli Rosetta 2 (DE3) cells using Ub-Rh110Gly as fluorogenic substrate preincubated for 1 hr followed by substrate addition by plate reader analysis
[5] = test system: Chlamydia trachomatis; assay: Anti-chlamydial activity against Chlamydia trachomatis serovar L2 infected in human HEp-2 cells assessed as inhibition of chlamydial inclusion incubated for 24 hrs by Alexa488/DAPI staining based immunofluorescence assay; assay type: functional, organism-based; details: serovar L2, HEp-2, 24 h
[6] = target: Ubiquitin carboxyl-terminal hydrolase isozyme L1 (Homo sapiens) (UniProt P09936); assay: Binding affinity to human UCHL1 (1 to 223 residues) expressed in Escherichia coli Rosetta 2 (DE3) cells using Ub-Rh110Gly as fluorogenic substrate assessed as ratio of Kinact/Ki by fluorescence based analysis
[7] = target: T1, Ubiquitin carboxyl-terminal hydrolase isozyme L1 (Homo sapiens, UniProt P09936); assay: Inhibition of 6His-tagged human UCHL1 using Ub-Rh110Gly as fluorogenic substrate preincubated for 1 hr followed by substrate addition by plate reader analysis
T1 sequence (P09936 whole entry): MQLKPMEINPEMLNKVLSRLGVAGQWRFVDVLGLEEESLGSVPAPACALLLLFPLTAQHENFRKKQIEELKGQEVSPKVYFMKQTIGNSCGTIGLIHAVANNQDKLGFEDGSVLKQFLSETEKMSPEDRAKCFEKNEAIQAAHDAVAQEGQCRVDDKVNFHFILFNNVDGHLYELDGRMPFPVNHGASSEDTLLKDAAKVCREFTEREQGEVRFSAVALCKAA

[8] = test system: Chlamydia trachomatis; assay: Antimicrobial activity against Chlamydia trachomatis serovar L2 infected in human HeLa cells assessed as reduction in inclusion circumference at 6.25 ug/ml measured after 24 hrs of post-infection by microscopic analysis (reference value: 33.2 micrometer); assay type: functional; details: dose 6.25 µg/ml
[9] = test system: Chlamydia trachomatis; assay: Antimicrobial activity against Chlamydia trachomatis serovar L2 infected in human HeLa cells assessed as reduction in microbial progeny at 1.56 ug/ml measured after 48 hrs of post-infection by immunofluorescence analysis; assay type: functional; set-up: scale not given: the % may be the effect or the level left; details: dose 1.56 µg/ml
[10] = test system: Chlamydia trachomatis; assay: Antimicrobial activity against Chlamydia trachomatis serovar L2 infected in human HeLa cells assessed as reduction in microbial progeny at 6.25 ug/ml measured after 24 hrs of post-infection by immunofluorescence analysis; assay type: functional; set-up: scale not given: the % may be the effect or the level left; details: dose 6.25 µg/ml
[11] = test system: Chlamydia trachomatis; assay: Antimicrobial activity against Chlamydia trachomatis serovar L2 infected in human HeLa cells assessed as reduction in inclusion area at 6.25 ug/ml measured after 24 hrs of post-infection by microscopic analysis (reference value: 79.96 microm2); assay type: functional; details: dose 6.25 µg/ml
[12] = test system: Chlamydia trachomatis; assay: Antimicrobial activity against Chlamydia trachomatis serovar L2 infected in human HeLa cells assessed as reduction in inclusion area at 12.5 ug/ml measured after 24 hrs of post-infection by microscopic analysis (reference value: 79.96 microm2); assay type: functional; details: dose 12.5 µg/ml
[13] = test system: Chlamydia trachomatis; assay: Antimicrobial activity against Chlamydia trachomatis serovar L2 infected in human HeLa cells assessed as reduction in microbial progeny at 1.56 ug/ml measured after 24 hrs of post-infection by immunofluorescence analysis; assay type: functional; set-up: scale not given: the % may be the effect or the level left; details: dose 1.56 µg/ml
[14] = test system: Chlamydia trachomatis; assay: Antimicrobial activity against Chlamydia trachomatis serovar L2 infected in human HeLa cells assessed as reduction in microbial progeny at 3.13 ug/ml measured after 24 hrs of post-infection by immunofluorescence analysis; assay type: functional; set-up: scale not given: the % may be the effect or the level left; details: dose 3.13 µg/ml
[15] = test system: Chlamydia trachomatis; assay: Antimicrobial activity against Chlamydia trachomatis serovar L2 infected in human HeLa cells assessed as reduction in microbial progeny at 3.13 ug/ml measured after 48 hrs of post-infection by immunofluorescence analysis; assay type: functional; set-up: scale not given: the % may be the effect or the level left; details: dose 3.13 µg/ml
[16] = test system: Chlamydia trachomatis; assay: Antimicrobial activity against Chlamydia trachomatis serovar L2 infected in human HeLa cells assessed as reduction in inclusion circumference at 12.5 ug/ml measured after 24 hrs of post-infection by microscopic analysis (reference value: 33.2 micrometer); assay type: functional; details: dose 12.5 µg/ml
[17] = test system: Chlamydia trachomatis; assay: Antimicrobial activity against Chlamydia trachomatis serovar L2 infected in human HeLa cells assessed as reduction in microbial progeny at 12.5 ug/ml measured after 24 hrs of post-infection by immunofluorescence analysis; assay type: functional; set-up: scale not given: the % may be the effect or the level left; details: dose 12.5 µg/ml
[18] = test system: Chlamydia trachomatis; assay: Antimicrobial activity against Chlamydia trachomatis serovar L2 infected in human HeLa cells assessed as reduction in inclusion forming unit at 1 ug/ml measured at 24 to 48 hrs of post-infection by immunofluorescence based microscopic analysis; assay type: functional, organism-based; details: dose 1.0 µg/ml, time 24-48 hrs
[19] = test system: Chlamydia trachomatis; assay: Antimicrobial activity against Chlamydia trachomatis serovar L2 infected in human HeLa cells assessed as fold increase in inclusion forming unit at 1 ug/ml measured after 48 hrs of post-infection by immunofluorescence based microscopic analysis; assay type: functional; details: dose 1 µg/ml
[20] = target: Ubiquitin carboxyl-terminal hydrolase 7 (Homo sapiens) (UniProt Q93009); assay: Binding affinity to USP7 (208 to 1102 residues) (unknown origin) expressed in Sf9 insect cells assessed as ratio of Kinact/Ki incubated for 3 hrs by fluorescence based analysis
Ubiquitin carboxyl-terminal hydrolase 7 (Homo sapiens), sequence (Q93009 whole entry, looked up, the tested form may be a part): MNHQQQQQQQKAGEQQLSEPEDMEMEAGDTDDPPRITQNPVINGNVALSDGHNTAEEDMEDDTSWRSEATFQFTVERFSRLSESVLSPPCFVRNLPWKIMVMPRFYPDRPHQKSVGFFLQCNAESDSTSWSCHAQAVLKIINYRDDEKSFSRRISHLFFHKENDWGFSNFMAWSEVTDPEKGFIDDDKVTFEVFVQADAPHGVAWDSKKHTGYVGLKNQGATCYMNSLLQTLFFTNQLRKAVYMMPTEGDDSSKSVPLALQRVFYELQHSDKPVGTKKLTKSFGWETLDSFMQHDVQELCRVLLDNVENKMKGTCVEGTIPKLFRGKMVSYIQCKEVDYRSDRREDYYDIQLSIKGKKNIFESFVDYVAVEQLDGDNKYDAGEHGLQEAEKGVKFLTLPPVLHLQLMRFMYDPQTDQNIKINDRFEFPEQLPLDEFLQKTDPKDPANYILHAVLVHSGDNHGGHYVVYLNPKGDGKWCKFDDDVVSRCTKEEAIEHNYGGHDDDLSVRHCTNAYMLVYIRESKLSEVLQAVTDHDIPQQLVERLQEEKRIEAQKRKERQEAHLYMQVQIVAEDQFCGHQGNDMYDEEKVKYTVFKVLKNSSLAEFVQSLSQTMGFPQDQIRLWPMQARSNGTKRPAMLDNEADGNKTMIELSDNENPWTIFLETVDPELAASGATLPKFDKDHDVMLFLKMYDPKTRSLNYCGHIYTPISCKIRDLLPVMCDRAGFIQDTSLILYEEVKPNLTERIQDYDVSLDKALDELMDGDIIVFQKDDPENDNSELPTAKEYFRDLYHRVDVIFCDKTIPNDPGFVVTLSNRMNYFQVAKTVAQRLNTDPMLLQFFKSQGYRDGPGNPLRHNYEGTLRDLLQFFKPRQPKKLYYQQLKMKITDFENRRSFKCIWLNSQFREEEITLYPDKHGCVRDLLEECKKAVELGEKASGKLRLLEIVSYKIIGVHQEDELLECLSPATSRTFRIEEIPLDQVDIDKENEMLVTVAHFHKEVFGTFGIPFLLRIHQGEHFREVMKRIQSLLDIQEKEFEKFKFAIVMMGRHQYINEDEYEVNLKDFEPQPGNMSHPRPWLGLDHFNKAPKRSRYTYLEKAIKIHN

Row | Compound | IC50 [4] [µM] | pIC50 [4] | IC50 [5] [µg/mL] | other results
1 | N#Cc1ncc(C(=O)NCc2ccc(C(=O)CCN3CCOCC3)cc2)cn1 | 14 | 4.86 |  | Kinact [1]: 0.363 min⁻¹; Ki [2]: 441 µM; Ratio [3]: 13.7 M⁻¹ s⁻¹
2 | CC(C)CN(CC(C)C)C(=O)c1ccc(CNC(=O)c2cnc(C#N)nc2)cc1 | 35 | 4.46 | 28.4 (≈ 72.2 µM) | 
3 | N#Cc1ncc(C(=O)NCc2ccc(C(=O)NCc3nccs3)cc2)cn1 | 31 | 4.51 |  | 
4 | Cc1ccc(CNC(=O)c2ccc(CNC(=O)c3cnc(C#N)nc3)cc2)cc1 | 241 | 3.62 |  | 
5 | CC(=O)c1ccc(CNC(=O)c2cnc(C#N)nc2)cc1 | 74 | 4.13 | 47.4 (≈ 169 µM) | 
6 | C#CCCCNC(=O)c1ccc(-n2cnc(NC(=O)[C@H]3CCN(C#N)C3)c2)cc1 |  |  |  | Ratio [6]: 681 M⁻¹ s⁻¹
7 | Cn1c(-c2ccc(CNC(=O)c3cnc(C#N)nc3)cc2)nc2ccccc21 | 131 | 3.88 |  | 
8 | N#Cc1ncc(C(=O)NCc2ccc(C(=O)NCCN3CCOCC3)cc2)cn1 | 51 | 4.29 |  | 
9 | N#Cc1ncc(C(=O)NCc2ccc(C(=O)NCCC3CC3)cc2)cn1 | 25 | 4.6 | 40.7 (≈ 116 µM) | 
10 | COc1ccccc1CNC(=O)c1ccc(CNC(=O)c2cnc(C#N)nc2)cc1 | 31 | 4.5 | 16.9 (≈ 42.1 µM) | Ki [2]: 276 µM
11 | Cc1nn(C)c2cc(-c3ccc(-n4cnc(NC(=O)[C@H]5CCN(C#N)C5)c4)cc3)ccc12 |  |  |  | IC50 [7]: < 1 µM
12 | Cc1ccccc1CNC(=O)c1ccc(CNC(=O)c2cnc(C#N)nc2)cc1 | 18 | 4.75 | 16.9 (≈ 43.8 µM) | 
13 | CCCN(CCC)C(=O)c1ccc(CNC(=O)c2cnc(C#N)nc2)cc1 | 74 | 4.13 |  | 
14 | N#Cc1ncc(C(=O)NCc2ccc(C(=O)Cc3ccccc3)cc2)cn1 | 24 | 4.63 |  | 
15 | COc1ccc(CNC(=O)c2ccc(CNC(=O)c3cnc(C#N)nc3)cc2)cc1 | 521 | 3.28 |  | 
16 | N#Cc1ncc(C(=O)NCc2ccc(C(=O)NCCc3ccccc3)cc2)cn1 | 64 | 4.2 |  | 
17 | CC(C)(C)N(Cc1ccc(C(=O)Cc2ccccc2)cc1)C(=O)c1cnc(C#N)nc1 | 41 | 4.13 | 9.88 (≈ 24 µM) | Activity [8]: 24.83 um; Activity [9]: 55.5%; Activity [10]: 38.5%; Activity [11]: 44.93 um2; Activity [12]: 23.3 um2; Activity [13]: 16.5%; Activity [14]: 31.5%; Activity [15]: 51.5%; Activity [16]: 18.05 um; Activity [17]: 81%
18 | CCOc1ccccc1CNC(=O)c1ccc(CNC(=O)c2cnc(C#N)nc2)cc1 | 13 | 4.9 | 15.8 (≈ 38 µM) | 
19 | COc1cccc(CNC(=O)c2ccc(CNC(=O)c3cnc(C#N)nc3)cc2)c1 | 81 | 4.09 | > 50 | 
20 | N#Cc1ncc(C(=O)NCc2ccc(C(=O)NCc3ccccc3)cc2)cn1 | 27 | 4.57 | 19.4 (≈ 52.2 µM) | Ki [2]: 226 µM
21 | N#Cc1ncc(C(=O)NCc2ccc(C(=O)NCC3CCCCC3)cc2)cn1 | 23 | 4.64 |  | 
22 | N#Cc1ncc(C(=O)NCc2ccccc2)cn1 | 154 | 3.82 |  | 
23 | N#Cc1ncc(C(=O)NCc2ccc(C(=O)NCC3CC3)cc2)cn1 | 37 | 4.43 | 47.7 (≈ 142 µM) | 
24 | N#Cc1ncc(C(=O)NCc2ccc(C(=O)NCC3CCC3)cc2)cn1 | 21 | 4.67 | 38.9 (≈ 111 µM) | 
25 | Cc1cccc(CNC(=O)c2ccc(CNC(=O)c3cnc(C#N)nc3)cc2)c1 | 21 | 4.68 | 17.3 (≈ 44.9 µM) | 
26 | N#Cc1ncc(C(=O)NCc2ccc(C(=O)N3CCc4ccccc4C3)cc2)cn1 | 16 | 4.79 |  | 
27 | C[C@H]1c2cccc(O)c2C(=O)C2=C(O)[C@]3(O)C(=O)C(C(N)=O)=C(O)[C@@H](N(C)C)[C@@H]3[C@@H](O)[C@@H]21 [DOXYCYCLINE ANHYDROUS] |  |  | 0.018 (≈ 0.0405 µM) | Activity [18]: Active; fold change (FC) [19]: 5.3
28 | C=CS(=O)(=O)Nc1ccccc1-c1ccc(C(=O)N2CCC(O)(Cn3cnc4c(cnn4C)c3=O)CC2)cc1 |  |  |  | Ratio [20]: 66 M⁻¹ s⁻¹
